Measurements reported in BindingDB's records for patent US20250163061 (Bala Therapeutics, 2025).

Molecular target: T1, Menin (Homo sapiens, UniProt O00255)
T1 sequence (O00255 whole entry): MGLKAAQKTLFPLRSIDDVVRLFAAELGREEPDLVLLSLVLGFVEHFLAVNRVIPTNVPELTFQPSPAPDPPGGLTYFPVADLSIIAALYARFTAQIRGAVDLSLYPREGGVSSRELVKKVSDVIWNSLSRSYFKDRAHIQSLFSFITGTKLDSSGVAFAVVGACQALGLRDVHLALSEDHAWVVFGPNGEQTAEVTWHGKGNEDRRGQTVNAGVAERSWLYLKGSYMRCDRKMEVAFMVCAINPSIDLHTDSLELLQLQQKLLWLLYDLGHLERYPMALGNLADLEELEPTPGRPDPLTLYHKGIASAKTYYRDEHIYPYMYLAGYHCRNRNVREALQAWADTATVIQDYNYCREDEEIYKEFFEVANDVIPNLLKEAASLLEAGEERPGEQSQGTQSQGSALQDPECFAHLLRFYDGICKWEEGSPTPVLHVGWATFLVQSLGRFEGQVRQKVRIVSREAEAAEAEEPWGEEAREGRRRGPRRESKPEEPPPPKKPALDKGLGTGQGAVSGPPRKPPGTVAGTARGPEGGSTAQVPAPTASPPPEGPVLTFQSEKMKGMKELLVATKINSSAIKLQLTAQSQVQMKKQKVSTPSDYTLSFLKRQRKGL
Test: Primary Assay Used to Determine Potency of MEN1 Activity Inhibition
Protocol: Compound activity was determined using recombinant MEN1 protein (Creativebiomart, Cat #MEN1-35H) and a custom fluorescein-labeled MLL4-43 peptide (Eton Bioscience Inc.). Interaction between MEN1 and MLL4-43 in the presence of compounds was determined by fluorescence polarization assay using a Microplate Reader ClarioStar Plus. The reaction was carried out in assay buffer (50 mM TRIS-HCl pH 7.4-7.6, 50 mM NaCl, 1 mM DTT, 0.1 mg/ml BSA). The compounds were dispensed on a 384 well Diamond Well Plate (Axigen, Cat #P-384-120SQ-C-S) using the Biomek FX liquid handling system at 100× solutions of compounds in DMSO. 2×MEN1 mix (final concentration of MEN1 10 nM) was prepared in Assay buffer and 10 μl of mixture per well was added into 384 w white Reaction plate with NBS (Corning, Cat #4513). 10 μl of Assay buffer w/o MEN1 was used for negative control. Plates were centrifuged for 1 min at 100 g. Next step the Compounds were added to Reaction plate using Biomek station via following steps: 3 μl of 100× compounds (in DMSO) were mixed thoroughly with 27 μl Assay Buffer, then 2 μl of this mixture was added to Reaction plate with 10 μl of MEN1 mix. Plates were centrifuged for 1 min at 100 g and incubated for 20 min at room temperature. Next 8 μL of MLL4-43 peptide per well was added to final concentration of MLL 0.5 nM. Plates were incubated for 1 hour at room temperature. Then fluorescence polarization was measured using Microplate Reader.

SMILES | EC50
CNC(=O)NC12CC(Cn3c(C#N)cc4c(C)c(CN5CCC6(CC5)CN(c5ncnc7ccc(CC(F)(F)F)cc57)C6)ccc43)(C1)C2 [US20250163061, Compound 60] | < 75 nM
Cc1c(CN2CCC3(CC2)CN(c2ncnc4ccc(CC(F)(F)F)cc24)C3)ccc2c1cc(C#N)n2CC12CC(NS(N)(=O)=O)(C1)C2 [US20250163061, Compound 61] | < 75 nM
Cc1c(CN2CCC3(CC2)CN(c2ncnc4ccc(CC(F)(F)F)cc24)C3)ccc2c1cc(C#N)n2CC12CC(N3CC(=O)NS3(=O)=O)(C1)C2 [US20250163061, Compound 62] | < 75 nM
C=CC(=O)N1CCN(C(C)Cn2c(C#N)cc3c(C)c(CN4CCC5(CC4)CN(c4ncnc6ccc(CC(F)(F)F)cc46)C5)ccc32)CC1 (stereo unspecified) [US20250163061, Compound 63] | < 75 nM
Cc1c(CN2CCC3(CC2)CN(c2ncnc4ccc(CC(F)(F)F)cc24)C3)ccc2c1cc(C#N)n2CC(C)N1CCN(S(=O)(=O)C(C)C)CC1 (stereo unspecified) [US20250163061, Compound 64] | < 75 nM
C=CC(=O)N1CCN(CCCCn2c(C#N)cc3c(C)c(CN4CCC5(CC4)CN(c4ncnc6ccc(CC(F)(F)F)cc46)C5)ccc32)CC1 [US20250163061, Compound 65] | < 75 nM
C=CC(=O)N1CCN(CCCn2c(C#N)cc3c(C)c(CN4CCC5(CC4)CN(c4ncnc6ccc(CC(F)(F)F)cc46)C5)ccc32)CC1 [US20250163061, Compound 66] | < 75 nM
Cc1c(CN2CCC3(CC2)CN(c2ncnc4ccc(CC(F)(F)F)nc24)C3)ccc2c1cc(C#N)n2CC(C)N1CCN(S(C)(=O)=O)CC1 (stereo unspecified) [US20250163061, Compound 67] | < 75 nM
Cc1c(CN2CCC3(CC2)CN(c2ncnc4ccc(CC(F)(F)F)cc24)C3)ccc2[nH]c(C#N)cc12 [US20250163061, Compound 68] | < 75 nM
Cc1c(CN2CCC3(CC2)CN(c2ncnc4ccc(CC(F)(F)F)cc24)C3)ccc2c1cc(C#N)n2CC(C)N1CCN(S(C)(=O)=O)CC1 (stereo unspecified) [US20250163061, Compound 71] | < 75 nM
Cc1c(CN2CCC3(CC2)CN(c2ncnc4ccc(CC(F)(F)F)cc24)C3)ccc2c1cc(C#N)n2CC1CCC(=O)NC1 (stereo unspecified) [US20250163061, Compound 72] | < 75 nM
CCCCS(=O)(=O)N1CCCN(C(C)Cn2c(C#N)cc3c(C)c(CN4CCC5(CC4)CN(c4ncnc6ccc(CC(F)(F)F)cc46)C5)ccc32)CC1 (stereo unspecified) [US20250163061, Compound 73] | < 75 nM
Cc1c(CN2CCC3(CC2)CN(c2ncnc4ccc(C(F)(F)C(F)(F)F)cc24)C3)ccc2c1cc(C#N)n2C[C@H](C)N1CCN(S(C)(=O)=O)CC1 [US20250163061, Compound 75] | < 75 nM
CC(Cn1c(C#N)cc2c(F)c(CN3CCC4(CC3)CN(c3ncnc5ccc(CC(F)(F)F)cc35)C4)ccc21)N1CCN(S(C)(=O)=O)CC1 (stereo unspecified) [US20250163061, Compound 78] | 75 to 500 nM
Cc1c(CN2CCC3(CC2)CN(c2nncc4ccc(CC(F)(F)F)cc24)C3)ccc2c1cc(C#N)n2CC(C)N1CCN(S(C)(=O)=O)CC1 (stereo unspecified) [US20250163061, Compound 79] | > 5000 nM
Cc1cc(CN2CCC3(CC2)CN(c2ncnc4ccc(CC(F)(F)F)cc24)C3)cc2c1cc(C#N)n2CC(C)N1CCN(S(C)(=O)=O)CC1 (stereo unspecified) [US20250163061, Compound 83] | > 5000 nM
C=CC(=O)N1CCN(CCn2c(C#N)cc3cc(CN4CCC5(CC4)CN(c4ncnc6ccc(CC(F)(F)F)cc46)C5)ccc32)CC1 [US20250163061, Compound 86] | 75 to 500 nM
Cc1c(CN2CCC3(CC2)CN(c2ncnc4ccc(CC(F)(F)F)cc24)C3)ccc2c1cc(C#N)n2CC1CNC(=O)CCO1 (stereo unspecified) [US20250163061, Compound 87] | < 75 nM
Cc1c(CN2CCC3(CC2)CN(c2ncnc4ncc(CC(F)(F)F)cc24)C3)ccc2c1cc(C#N)n2CC(C)N1CCN(S(C)(=O)=O)CC1 (stereo unspecified) [US20250163061, Compound 89] | < 75 nM
CS(=O)(=O)N1CCN(CCn2c(C#N)cc3cc(CN4CCC5(CC4)CN(c4ncnc6ccc(CC(F)(F)F)cc46)C5)ccc32)CC1 [US20250163061, Compound 91] | < 75 nM
Cc1c(CN2CCC3(CC2)CN(c2ncnc4ccc(CC(F)(F)F)cc24)C3)ccc2c1cc(C#N)n2CC(C)N1CCNC(=O)C1 (stereo unspecified) [US20250163061, Compound 93] | < 75 nM
Cc1c(CN2CCC3(CC2)CN(c2ncnc4ccc(CC(F)(F)F)cc24)C3)ccc2c1cc(C#N)n2CC12CC(NC=O)(C1)C2 [US20250163061, Compound 95] | < 75 nM
Cc1c(CN2CCC3(CC2)CN(c2ncnc4ccc(CC(F)(F)F)cc24)C3)ccc2c1cc(C#N)n2CCN1CCOCC1 [US20250163061, Compound 97] | < 75 nM
CN(C)C/C=C/C(=O)N1CCN(CCn2c(C#N)cc3cc(CN4CCC5(CC4)CN(c4ncnc6ccc(CC(F)(F)F)cc46)C5)ccc32)CC1 [US20250163061, Compound 99] | < 75 nM
Cc1c(CN2CCC3(CC2)CN(c2ncnc4ccc(CC(F)(F)F)cc24)C3)ccc2c1cc(C#N)n2C[C@H]1CNC(=O)CO1 [US20250163061, Compound 101] | < 75 nM
Cc1c(CN2CCC3(CC2)CN(c2ncnc4ccc(CC(F)(F)F)cc24)C3)ccc2c1cc(C#N)n2C[C@@H]1CNC(=O)CO1 [US20250163061, Compound 102] | < 75 nM
CCN1CC(Cn2c(C#N)cc3c(C)c(CN4CCC5(CC4)CN(c4ncnc6ccc(CC(F)(F)F)cc46)C5)ccc32)OCC1=O (stereo unspecified) [US20250163061, Compound 104] | < 75 nM
Cc1c(CN2CCC3(CC2)CN(c2nc(=O)[nH]c4ccc(CC(F)(F)F)cc24)C3)ccc2c1cc(C#N)n2C[C@@H]1CNC(=O)CO1 [US20250163061, Compound 105] | 500 to 1000 nM

Continued, values first:

EC50 | SMILES
< 75 nM | Cc1c(CN2CCC3(CC2)CN(c2ncnc4ccc(CC(F)(F)F)cc24)C3)ccc2c1cc(C#N)n2C[C@@H](C)N1CCN(S(C)(=O)=O)[C@@H](C)C1 [US20250163061, Compound 27]
< 75 nM | Cc1c(CN2CCC3(CC2)CN(c2ncnc4ccc(CC(F)(F)F)cc24)C3)ccc2c1cc(C#N)n2C[C@H](C)N1CCN(S(C)(=O)=O)[C@@H](C)C1 [US20250163061, Compound 28]
< 75 nM | Cc1c(CN2CCC3(CC2)CN(c2ncnc4ccc(CC(F)(F)F)cc24)C3)ccc2c1cc(C#N)n2CC(C)N1CCCN(S(C)(=O)=O)CC1 (stereo unspecified) [US20250163061, Compound 29]
< 75 nM | Cc1c(CN2CCC3(CC2)CN(c2ncnc4cc(F)c(CC(F)(F)F)cc24)C3)ccc2c1cc(C#N)n2CC(C)N1CCN(S(C)(=O)=O)CC1 (stereo unspecified) [US20250163061, Compound 30]
< 75 nM | Cc1c(CN2CCC3(CC2)CN(c2ncnc4ccc(CC(F)(F)F)cc24)C3)ccc2c1cc(C#N)n2C[C@H]1CC[C@H](NS(C)(=O)=O)CC1 [US20250163061, Compound 40]
< 75 nM | Cc1c(CN2CCC3(CC2)CN(c2ncnc4ncc(CC(F)(F)F)nc24)C3)ccc2c1cc(C#N)n2CC(C)N1CCN(S(C)(=O)=O)CC1 (stereo unspecified) [US20250163061, Compound 42]
< 75 nM | Cc1c(CN2CCC3(CC2)CN(c2ncnc4ccc(CC(F)(F)F)cc24)C3)ccc2c1cc(C#N)n2CCCCN1CCN(S(C)(=O)=O)CC1 [US20250163061, Compound 44]
< 75 nM | Cc1c(CN2CCC3(CC2)CN(c2ncnc4cnc(CC(F)(F)F)cc24)C3)ccc2c1cc(C#N)n2CC(C)N1CCN(S(C)(=O)=O)CC1 (stereo unspecified) [US20250163061, Compound 45]
< 75 nM | Cc1c(CN2CCC3(CC2)CN(c2ncnc4ccc(CC(F)(F)F)cc24)C3)ccc2c1cc(C#N)n2CC1CNC(=O)C1 (stereo unspecified) [US20250163061, Compound 51]
< 75 nM | Cc1c(CN2CCC3(CC2)CN(c2ncnc4ccc(CC(F)(F)F)cc24)C3)ccc2c1cc(C#N)n2CC1CCC(=O)N1 (stereo unspecified) [US20250163061, Compound 52]
< 75 nM | Cc1c(CN2CCC3(CC2)CN(c2ncnc4ccc(CC(F)(F)F)c(F)c24)C3)ccc2c1cc(C#N)n2C[C@H](C)N1CCN(S(C)(=O)=O)CC1 [US20250163061, Compound 57]
< 75 nM | CNc1nc(N2CC3(CCN(Cc4ccc5c(cc(C#N)n5C[C@@H]5CNC(=O)CO5)c4C)CC3)C2)c2cc(CC(F)(F)F)ccc2n1 [US20250163061, Compound 58]
< 75 nM | CC(=O)NC12CC(Cn3c(C#N)cc4c(C)c(CN5CCC6(CC5)CN(c5ncnc7ccc(CC(F)(F)F)cc57)C6)ccc43)(C1)C2 [US20250163061, Compound 59]
